Two substances from patent US20250032430A1, “USES OF RHODOQUINONE FOR THE TREATMENT OF DISEASE” (Whitehead Institute for Biomedical Research, priority 2021, published 2025) can be followed below.

In experiment [1] the test system is SW1353, U87, DLD1, HCT116, C2C12, primary dermal fibroblasts, Mink lung epithelial cells. In words: Fumarate reduction in a panel of other cell lines. In kind it is cell-based. Conditions: other human cancer cell lines. Here is the method: Stable isotope tracing in cells: Cells were seeded 24 hours prior to the experiment in 6-well dishes at 70% density. For stable isotope tracing of glutamine, glutamine-free DMEM (ThermoFisher) was supplemented with 2 mM ^13C5^15N2-glutamine (Sigma), 1 mM pyruvate, 5% FBS, 1% P/S, 0.1 mg/mL uridine. For stable isotope tracing of aspartate, DMEM containing 5% FBS, and 1% penicillin and streptomycin, and 0.1 mg/mL uridine (Sigma) was supplemented with the designated amount of 13C4-aspartate (Sigma) and the pH adjusted to 7.4. Uridine was left out of the media for stable isotope tracing experiments measuring nucleotide biosynthesis. Unless otherwise stated, for all experiments, cells were treated for 8 hours and metabolites were isolated as described below. Relevant compounds were added at the start of the incubation periods.

Experiment [2] concerns kidney derived cancer cell line. Kind of experiment: Western blot of kidney derived cancer cell line cultured in hypoxia (NRF2, PDH phosphorylation). In kind it is cell-based. Particulars: hypoxia for 5 days. Here is the method:
This includes NRF2 accumulation, which is a sensor of oxidative stress, and phosphorylation on PDH, which is a marker of AMPK activation. AMPK senses AMP, and is hyperactive when cells have “low energy”
Western Blots: Adherent cells were lysed in RIPA buffer (150 mM NaCl, 50 mM Tris-HCl, pH 7.5, 0.1% SDS, 1% Triton-X 100 (Sigma), 0.5% deoxycholate (Sigma), complete EDTA-free protease inhibitor (Sigma)) and clarified by centrifugation. Protein content was quantified using a Pierce BCA Protein Assay Kit (Life Technologies) and 30-50 μg protein were loaded on 12% Tris-Glycine Novex Gels (Invitrogen). Proteins were subsequently transferred to a 0.45 μm PVDF membrane (Sigma). Primary antibodies were used at the following dilutions in 5% BSA:SDHA (Proteintech; 1:1000), NDUFV1 (Abcam; 1:1000), Total OXPHOS Rodent WB Antibody Cocktail-containing UQCRC2, SDHB, and ATP5A (Abcam; 1:1000), COX IV (Cell Signaling Technology; 1:1000), MT-ND5 (Abcam; 1:1000), FLAG (Sigma; 1:1000), HIF1a (Cell Signaling Technology; 1:1000), ATP citrate lyase (Abcam; 1:1000), Citrate Synthase (Cell Signaling; 1:1000). Secondary antibodies were used at the following dilutions in 5% Milk:Anti-rabbit IgG HRP-linked Antibody (1:5000, Cell Signaling Technology), Anti-mouse IgG HRP-linked Antibody (1:5000, Cell Signaling Technology). […]
For orientation: Immunoblotting shows a protein as a band on a membrane.

For the substance antimycin, in experiment [1], the fumarate reduction result was “increased”.

For the substance rhodoquinone, the “oxidative and bioenergetic stresses (NRF2 accumulation, phosphorylation on PDH)” value in experiment [2] was “protects against oxidative and bioenergetic stresses”.
